Reference: US11622955B2, “Sigma-1 receptor agonist systolic blood pressure therapy” (ANAVEX LIFE SCIENCES CORP., priority 2017, dated 2023)
Counter-ions that a name gives are not always drawn.

Tests used:
[1] = Example 3: trough systolic blood pressure, combination with a thiazine diuretic; format: in vivo, human; settings: person
Method: Effect of 10 mg Once Daily Dosage A2-73 Combination Treatment with a Thiazine Diuretic.
The subject continues on the chlorothalidone and is started on oral A2-73 at a daily dosage of 10 mg/day for a period of 25 days. Their trough systolic blood pressure is then measured at 135 mg Hg and maintained indefinitely with the combined chlorothalidone and daily oral dose of 10 mg of A2-73.

[2] = Example 2: maximum diurnal systolic blood pressure, combination with a β1-selective agent; format: in vivo, human; settings: person
Description: “Maximum diurnal” systolic or diastolic BP is a measure of highest systolic or diastolic blood pressure recorded in a 24-hour period. Without being bound by any particular theory, it is believed that a maximal diurnal BP reflects the peak of the natural diurnal blood pressure cycle, typically occurring in the morning, for example between about 5 am and about 11 am. Commonly, a second peak occurs in the evening, for example between about 5 pm and 10 pm. Such a bimodal waveform diurnal ambulatory BP pattern may be especially characteristic of resistant hypertension.
Effect of 50 mg Once Daily Dosage A2-73 Combination Treatment with a β1-Selective Agent.
The subject continues on the metoprolol tartrate, and is started on oral A2-73 at a daily dosage of 50 mg/day for a period of 25 days. Their maximum diurnal systolic blood pressure is then measured at 135 mg Hg and maintained indefinitely with the combined metoprolol tartrate and daily oral dose of 50 mg of A2-73.

[3] = cited from earlier work
[4] = Phase IIa clinical trial in Alzheimer's disease patients, post-hoc evaluation of systolic blood pressure; format: in vivo, human
Method: FIG. 1 is a graph of systolic blood pressure readings of 32 human patients of both sexes, across multiple visits, adjusted for time of BP measurement, gender, age, body mass index, and previous or concurrent use of antihypertensive medication.
BPs were measured at four time points during the study period: 1) the day of screening for enrollment, 2) day one of treatment with either oral or intravenous medication (BP measurements were obtained prior to medication administration), 3) day 25 of treatment (when patients crossed over to receive whichever formulation, oral or intravenous, they had not received previously), and 4) day 36 (conclusion of the PART A of the Phase IIa study). Statistical analyses included paired t-testing comparing changes in BPs across each measurement, as well as multivariable linear mixed effects modeling (adjusted for time of measurement, gender, age, body mass index, and use of antihypertensive medication) to account for within-individual repeated measurements over time.
Thirty-two Alzheimer's disease patients took part in the phase IIa trial. Mean age was 69.5 (standard deviation [SD] 9.8) years, 60% were male, mean body mass index was 26.5 (SD 3.9) kg/m2, and 50% were on antihypertensive medication at the time of screening. […] In multivariable adjusted models (FIG. 1), there was no significant difference in SBP between the first and second readings (p=0.211). […] Of note, no patients reported any changes in their antihypertensive regimen while taking part in the trial.

[5] = Example 1: 24-hour ambulatory systolic blood pressure in a patient with high SBP; format: in vivo, human; settings: person
Method: Another measure of blood pressure is “24-hour ambulatory” blood pressure. A “24-hour ambulatory” systolic or diastolic BP is an average of systolic or diastolic measurements taken repeatedly in the course of a 24-hour period, in an ambulatory subject.
Effect of 5 mg and 30 mg Once Daily dosage A2-73.
The dose of A2-73 is then increased so that the subject is administered A2-73 daily, at a dosage of 30 mg/day for a period of 25 days. His 24-hour ambulatory systolic blood pressure is then measured at 135 mg Hg and maintained indefinitely with the daily oral dose of 30 mg of A2-73.

[6] = single oral dose, healthy male volunteers

Question: For `NS(=O)(=O)c1cc(C2(O)NC(=O)c3ccccc32)ccc1Cl` (racemic) [chlorothalidone, (RS)-2-Chloro-5-(1-hydroxy-3-oxo-2,3-dihydro-1H-isoindol-1-yl)benzene-1-sulfonamide, reference compound], which “trough systolic blood pressure” value ([1]; chlorothalidone 25 mg orally once a day, before A2-73) is on record?
Answer: The value was 150 mg Hg.

Question: With `COCCc1ccc(OCC(O)CNC(C)C)cc1` (racemic) [metoprolol tartrate, (RS)-1-[4-(2-Methoxyethyl)phenoxy]-3-[(propan-2-yl)amino]propan-2-ol, reference compound] as the molecule, how does the “maximum diurnal systolic blood pressure” value ([2]; metoprolol tartrate 50 mg twice daily, before A2-73) read?
Answer: The value was 150 mg Hg.

Question: Which results are given for `CN(C)CC1CCOC1(c1ccccc1)c1ccccc1.Cl` (centres unmarked) [A2-73, tetrahydro-N,N-dimethyl-2,2-diphenyl-3-furanmethanamine hydrochloride]?
Answer: observed adverse events ([3]; at the highest doses): moderate and reversible dizziness and headache; blood pressure, resting heart rate, vital signs and 12-lead ECG changes ([3]; in vivo, po): did not show any clinically relevant or dose-dependent changes; pharmacokinetics ([3]; in vivo, po): suitable for daily oral dosing; serious adverse events ([3]; single ascending oral dose, 22 healthy male volunteers): No serious adverse events occurred; maximum tolerable dose [3, 6]: 55 mg; minimum intolerable dose [3, 6]: 60 mg; safety and tolerability of ascending single oral doses ([3]; single oral doses of 1, 10, 30, 40, 50 and 55 mg, healthy subjects): safe and well tolerated; tolerability in human patients ([4]; Phase I and Phase IIa clinical trials): well tolerated; change in SBP, first reading vs other subsequent readings (day 25, day 36) ([4]; multivariable adjusted models (FIG. 1), p=0.048 and 0.008): significant decline in SBP; change in SBP, second measurement (day one, pre-dose) vs all subsequent measurements ([4]; unadjusted analyses, p=0.120 and 0.972 (day 25, day 36)): no significant decline; change in SBP, first measurement vs all subsequent measurements ([4]; unadjusted analyses, paired t-test, p=0.007, 0.001 and 0.007, 32 Alzheimer's disease patients, oral or intravenous): significant decline in SBP; 24-hour ambulatory systolic blood pressure ([5]; 5 mg A2-73 orally once a day): 150 mg Hg; 24-hour ambulatory systolic blood pressure ([5]; A2-73 30 mg/day oral for 25 days): 135 mg Hg; trough systolic blood pressure ([1]; oral A2-73 10 mg/day for 25 days, combined with continued chlorothalidone 25 mg once a day): 135 mg Hg; maximum diurnal systolic blood pressure ([2]; oral A2-73 50 mg/day for 25 days, combined with continued metoprolol tartrate 50 mg twice daily): 135 mg Hg
